This note sets out measurements from patent publication US20240109917A1 (ACTELION PHARMACEUTICALS LTD, priority 2020, published 2024).

Read-outs that look alike come from different tables or passages of the source.

Test [1] deals with His6-TEV-PDGFRβ (557-1016) (Homo sapiens (Human), UniProt P09619). Kind of test: PDGFRβ HTRF Assay. It is filed as biochemical. Conditions: read-out: PDGFR HTRF IC50. The method, boiled down:
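Human PDGFRβ (557-1016) pre-incubated with compound for 30 min at RT in pH 7.5 HEPES/MgCl2/EGTA/Brij-35/DTT buffer. Reaction started with ATP and TK-biotin peptide, run 3 h at RT, then quenched with EDTA-containing Eu-cryptate antibody/streptavidin-XL665. HTRF 665/620 nm ratio read after 60 min; percent inhibition relative to DMSO and 10 μM imatinib controls.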

The next test concerns the target PDGFRβ (Rattus norvegicus (Rat), UniProt Q05030). Kind of test: PDGFRβ Cellular Assay (PDGFRb P-Y751 HTRF in A10 cells stimulated with PDGF-BB). It is filed as cell-based. Summed up:
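Rat A10 cells, plated overnight, were treated with compound for 3 hours, then stimulated with PDGF-BB (working stock 100 ng/mL in 10% FBS medium). After lysis, PDGFRβ P-Y751 was detected by HTRF.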

Sequence of PDGFRβ (Q05030 32-1097): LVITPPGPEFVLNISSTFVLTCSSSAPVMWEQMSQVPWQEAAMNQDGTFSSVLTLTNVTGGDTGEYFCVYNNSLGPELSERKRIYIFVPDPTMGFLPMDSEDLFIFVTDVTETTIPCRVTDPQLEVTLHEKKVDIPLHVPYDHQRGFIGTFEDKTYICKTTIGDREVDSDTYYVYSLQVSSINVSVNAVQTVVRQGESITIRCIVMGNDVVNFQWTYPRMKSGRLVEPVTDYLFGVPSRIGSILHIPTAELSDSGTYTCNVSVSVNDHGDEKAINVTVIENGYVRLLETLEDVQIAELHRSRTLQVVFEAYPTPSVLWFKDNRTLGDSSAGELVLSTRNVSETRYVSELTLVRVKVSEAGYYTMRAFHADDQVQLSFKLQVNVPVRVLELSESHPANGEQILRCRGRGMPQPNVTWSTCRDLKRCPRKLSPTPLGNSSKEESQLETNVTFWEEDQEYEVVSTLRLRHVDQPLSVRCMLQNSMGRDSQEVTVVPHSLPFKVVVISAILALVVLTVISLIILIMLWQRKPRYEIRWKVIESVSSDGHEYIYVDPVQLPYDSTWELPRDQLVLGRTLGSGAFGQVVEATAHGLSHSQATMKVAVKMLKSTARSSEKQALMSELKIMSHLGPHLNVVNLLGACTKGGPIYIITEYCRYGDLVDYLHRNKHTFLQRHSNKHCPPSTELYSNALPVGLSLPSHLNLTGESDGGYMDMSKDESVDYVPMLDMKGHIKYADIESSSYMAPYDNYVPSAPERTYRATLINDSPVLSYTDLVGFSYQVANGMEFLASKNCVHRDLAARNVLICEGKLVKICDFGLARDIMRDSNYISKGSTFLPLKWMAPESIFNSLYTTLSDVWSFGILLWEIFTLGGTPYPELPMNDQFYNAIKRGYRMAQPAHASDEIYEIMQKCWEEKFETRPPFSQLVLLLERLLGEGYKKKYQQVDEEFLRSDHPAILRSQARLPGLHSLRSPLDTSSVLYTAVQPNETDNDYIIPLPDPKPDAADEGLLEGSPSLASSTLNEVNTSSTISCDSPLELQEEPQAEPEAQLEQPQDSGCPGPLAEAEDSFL
Sequence of His6-TEV-PDGFRβ (557-1016) (P09619 557-1016): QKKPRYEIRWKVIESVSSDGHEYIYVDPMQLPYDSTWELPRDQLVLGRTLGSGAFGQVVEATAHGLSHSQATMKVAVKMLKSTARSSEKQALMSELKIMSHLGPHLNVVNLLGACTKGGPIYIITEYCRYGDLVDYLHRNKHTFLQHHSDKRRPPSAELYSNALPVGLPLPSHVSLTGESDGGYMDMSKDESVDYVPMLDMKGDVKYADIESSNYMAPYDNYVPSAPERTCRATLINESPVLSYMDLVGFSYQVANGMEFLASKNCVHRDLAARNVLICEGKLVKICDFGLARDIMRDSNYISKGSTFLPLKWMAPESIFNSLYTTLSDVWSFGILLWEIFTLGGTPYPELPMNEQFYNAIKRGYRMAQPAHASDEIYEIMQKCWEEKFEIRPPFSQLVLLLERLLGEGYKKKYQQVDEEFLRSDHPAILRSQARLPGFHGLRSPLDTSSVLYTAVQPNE

For `COc1ncccc1-c1cn2ncc(C(=O)Nc3cc(NC(=O)CN4CCC5(CCOC5)C4)cnc3C)c2s1` (stereo not drawn) [Example 320, N-(5-(2-(2-oxa-7-azaspiro[4.4]nonan-7-yl)acetamido)-2-methylpyridin-3-yl)-2-(2-methoxypyridin-3-yl)pyrazolo[5,1-b]thiazole-7-carboxamide], the half-inhibitory concentration (IC50) in test [1] worked out at 0.2 nM; on PDGFRβ (read-out: PDGFR Cellular IC50), 1.6 nM.

Consider `COc1ncccc1-c1cn2ncc(C(=O)Nc3cc(NC(=O)CN4CCCC5(CC5)C4)cnc3C)c2s1` [Example 321, N-(5-(2-(5-azaspiro[2.5]octan-5-yl)acetamido)-2-methylpyridin-3-yl)-2-(2-methoxypyridin-3-yl)pyrazolo[5,1-b]thiazole-7-carboxamide], for which the IC50 was determined as 0.2 nM in test [1] and 1.2 nM at PDGFRβ (read-out: PDGFR Cellular IC50).

Take `Cc1ncc(NC(=O)C[C@@H]2CCCN2C(C)C)cc1NC(=O)c1cnn2cc(-c3cccnc3O)sc12` [Example 322, (S)-2-(2-hydroxypyridin-3-yl)-N-(5-(2-(1-isopropylpyrrolidin-2-yl)acetamido)-2-methylpyridin-3-yl)pyrazolo[5,1-b]thiazole-7-carboxamide]: the half-maximal inhibitory concentration (IC50) came to 0.7 nM in test [1] and 122 nM at PDGFRβ (read-out: PDGFR Cellular IC50).

With `COc1ncccc1-c1cn2ncc(C(=O)Nc3cc(NC(=O)C[C@@H]4CCCN4C(C)C)cnc3C)c2s1` [Example 323, (S)—N-(5-(2-(1-isopropylpyrrolidin-2-yl)acetamido)-2-methylpyridin-3-yl)-2-(2-methoxypyridin-3-yl)pyrazolo[5,1-b]thiazole-7-carboxamide], the figures for the 50% inhibitory concentration (IC50) (in test [1]; on PDGFRβ (read-out: PDGFR Cellular IC50)) were 0.2 nM and 2.8 nM, respectively.

As for `COc1ncccc1-c1cn2ncc(C(=O)Nc3cc(NC(=O)CN4CCC5(CC5)C4)cnc3C)c2s1` [Example 324, N-(5-(2-(5-azaspiro[2.4]heptan-5-yl)acetamido)-2-methylpyridin-3-yl)-2-(2-methoxypyridin-3-yl)pyrazolo[5,1-b]thiazole-7-carboxamide], the IC50 in test [1] came out at 0.1 nM; at PDGFRβ (read-out: PDGFR Cellular IC50), 1.1 nM.

Take `COCCn1cc(-c2cn3ncc(C(=O)Nc4cc(NC(=O)CN5CCC[C@@H]5C)cnc4C)c3s2)cn1` [Example 325, (S)-2-(1-(2-methoxyethyl)-1H-pyrazol-4-yl)-N-(2-methyl-5-(2-(2-methylpyrrolidin-1-yl)acetamido)pyridin-3-yl)pyrazolo[5,1-b]thiazole-7-carboxamide]: the half-inhibitory concentration (IC50) turned out to be 0.8 nM in test [1] and 10.7 nM at PDGFRβ (read-out: PDGFR Cellular IC50).

With `COCCn1cc(-c2cn3ncc(C(=O)Nc4cc(NC(=O)CN5CCC6(CC6)C5)cnc4C)c3s2)cn1` [Example 326, N-(5-(2-(5-azaspiro[2.4]heptan-5-yl)acetamido)-2-methylpyridin-3-yl)-2-(1-(2-methoxyethyl)-1H-pyrazol-4-yl)pyrazolo[5,1-b]thiazole-7-carboxamide], the IC50 in test [1] came out at 0.4 nM; on PDGFRβ (PDGFR Cellular IC50), 3 nM.

As to `COCCn1cc(-c2cn3ncc(C(=O)Nc4cc(NC(=O)CN5CCCC5(C)C)cnc4C)c3s2)cn1` [Example 329, N-(5-(2-(2,2-dimethylpyrrolidin-1-yl)acetamido)-2-methylpyridin-3-yl)-2-(1-(2-methoxyethyl)-1H-pyrazol-4-yl)pyrazolo[5,1-b]thiazole-7-carboxamide], the half-maximal inhibitory concentration (IC50) in test [1] stood at 0.5 nM; against PDGFRβ (PDGFR Cellular IC50), 4.4 nM.

`COCCn1cc(-c2cn3ncc(C(=O)Nc4cc(NC(=O)CN5CCC[C@H]5C)cnc4C)c3s2)cn1` [Example 330, (R)-2-(1-(2-methoxyethyl)-1H-pyrazol-4-yl)-N-(2-methyl-5-(2-(2-methylpyrrolidin-1-yl)acetamido)pyridin-3-yl)pyrazolo[5,1-b]thiazole-7-carboxamide]: the 50% inhibitory concentration (IC50) in test [1] was found to be 0.6 nM; at PDGFRβ (read-out: PDGFR Cellular IC50) it was 6.8 nM.
